In ChEMBL document CHEMBL1201862, “PubChem BioAssay data set” (2004):
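Results reflect a 48-hour exposure of cells in 96-well plates to compound at five concentrations. GI50 is the concentration that inhibits growth by half.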 Active and inactive are the calls of the source. Rule as the data show it: active = GI50 up to about 1.1 µM and inactive = higher.

Legend:
Assay in all cases: DTP human tumour cell line panel, 48 h
ACHN = tested on: ACHN
MDA-MB-435 = tested on: MDA-MB-435
KM12 = tested on: KM12
HCT-15 = tested on: HCT-15
OVCAR-3 = tested on: OVCAR-3
SR = tested on: SR
NCI-H23 = tested on: NCI-H23
NCI-H460 = tested on: NCI-H460
M14 = tested on: M14
A498 = tested on: A498
K562 = tested on: K562
SF-268 = tested on: SF-268
DU-145 = tested on: DU-145
SK-MEL-2 = tested on: SK-MEL-2
EKVX = tested on: EKVX
NCI/ADR-RES = tested on: NCI/ADR-RES
SN12C = tested on: SN12C
RXF 393 = tested on: RXF 393
SNB-75 = tested on: SNB-75
U-251 = tested on: U-251

Compound	GI50 (ACHN)	GI50 (MDA-MB-435)	GI50 (KM12)	GI50 (HCT-15)	GI50 (OVCAR-3)	GI50 (SR)	GI50 (NCI-H23)	GI50 (NCI-H460)	GI50 (M14)	GI50 (A498)	GI50 (K562)	GI50 (SF-268)	GI50 (DU-145)	GI50 (SK-MEL-2)	GI50 (EKVX)	GI50 (NCI/ADR-RES)	GI50 (SN12C)	GI50 (RXF 393)	GI50 (SNB-75)	GI50 (U-251)
O=S1(=O)CCN(Cc2ccccn2)CC1	> 100 µM (inactive)	> 100 µM (inactive)	> 100 µM (inactive)	> 100 µM	4.49 µM (inactive)	> 100 µM (inactive)	> 100 µM (inactive)	> 100 µM (inactive)	> 100 µM (inactive)	> 100 µM (inactive)	> 100 µM (inactive)	> 100 µM (inactive)	> 100 µM (inactive)	> 100 µM (inactive)	> 100 µM (inactive)	> 100 µM (inactive)	> 100 µM (inactive)	> 100 µM (inactive)	> 100 µM (inactive)	> 100 µM (inactive)
Cc1nn(C(=O)c2ccccc2O)c2c1C(c1ccc([N+](=O)[O-])cc1)SC(=N)N2 (stereo not given)	1.17 µM (inactive)	1.45 µM (inactive)	5.36 µM (inactive)	5.14 µM	4.05 µM (inactive)	4.83 µM (inactive)	2.79 µM (inactive)	3.79 µM (inactive)	7.19 µM (inactive)	2.78 µM (inactive)	1.17 µM (inactive)	6.68 µM (inactive)	3.64 µM (inactive)	> 5.46 µM (inactive)	> 10 µM (inactive)	4.51 µM (inactive)	4.78 µM (inactive)	2.54 µM (inactive)	0.769 µM (active)	2.9 µM (inactive)
Oc1nc2cc3nc(O)c(O)nc3cc2nc1O	> 100 µM (inactive)	> 100 µM (inactive)	> 100 µM (inactive)	> 100 µM	> 100 µM (inactive)	> 10 µM (inactive)	> 100 µM (inactive)	> 100 µM (inactive)	> 100 µM (inactive)	> 100 µM (inactive)	> 100 µM (inactive)	> 100 µM (inactive)	> 100 µM (inactive)	> 100 µM (inactive)	> 100 µM (inactive)	> 100 µM (inactive)	> 100 µM (inactive)	> 100 µM (inactive)	> 100 µM (inactive)	> 100 µM (inactive)
COC(=O)CC1C=CC(C)(OC)OO1 (stereo not given)	94.4 µM (inactive)	> 100 µM (inactive)	> 100 µM (inactive)	39.4 µM	87.7 µM (inactive)	58.5 µM (inactive)	> 100 µM (inactive)	4.84 µM (inactive)	> 100 µM (inactive)	> 100 µM (inactive)	19.7 µM (inactive)	> 100 µM (inactive)	> 100 µM (inactive)	> 100 µM (inactive)	> 100 µM (inactive)	> 100 µM (inactive)	> 100 µM (inactive)	51.1 µM (inactive)	> 100 µM (inactive)	> 100 µM (inactive)
Cc1ccc(N)c(S)c1	18.5 µM (inactive)	19 µM (inactive)	18.3 µM (inactive)	16.7 µM	21.3 µM (inactive)	18 µM (inactive)	17.7 µM (inactive)	22 µM (inactive)	16.9 µM (inactive)	16.7 µM (inactive)	28.6 µM (inactive)	20.8 µM (inactive)	15.7 µM (inactive)	17.2 µM (inactive)	16.2 µM (inactive)	24 µM (inactive)	1.7 µM (inactive)	16.8 µM (inactive)	21.7 µM (inactive)	15.2 µM (inactive)
O=c1[nH]nc(-c2ccccc2)n1-c1cccc([N+](=O)[O-])c1	> 100 µM (inactive)	> 100 µM (inactive)	> 100 µM (inactive)	> 100 µM	> 100 µM (inactive)	> 100 µM (inactive)	> 100 µM (inactive)	> 100 µM (inactive)	> 100 µM (inactive)	> 100 µM (inactive)	> 100 µM (inactive)	> 100 µM (inactive)	> 100 µM (inactive)	> 100 µM (inactive)	> 100 µM (inactive)	> 100 µM (inactive)	> 100 µM (inactive)	> 100 µM (inactive)	> 100 µM (inactive)	> 100 µM (inactive)
COc1ccc(N2C(=O)CC(=O)N(NC(=O)C(C)Oc3ccccc3C)C2=S)cc1 (stereo not given)	> 100 µM (inactive)	> 100 µM (inactive)	> 100 µM (inactive)	> 100 µM	> 100 µM (inactive)	> 100 µM (inactive)	> 100 µM (inactive)	> 100 µM (inactive)	> 100 µM (inactive)	> 100 µM (inactive)	> 100 µM (inactive)	> 100 µM (inactive)	> 100 µM (inactive)	> 100 µM (inactive)	> 100 µM (inactive)	> 100 µM (inactive)	> 100 µM (inactive)	> 100 µM (inactive)	> 100 µM (inactive)	> 100 µM (inactive)
O=c1cc(NNc2cccc3ccccc23)[nH]c(=O)[nH]1	16.5 µM (inactive)	17.1 µM (inactive)	16.4 µM (inactive)	12.4 µM	14 µM (inactive)	2.61 µM (inactive)	15.3 µM (inactive)	18.8 µM (inactive)	15.9 µM (inactive)	19.8 µM (inactive)	12.9 µM (inactive)	16.4 µM (inactive)	15.3 µM (inactive)	15 µM (inactive)	14.6 µM (inactive)	19.5 µM (inactive)	16.2 µM (inactive)	17.9 µM (inactive)	16.6 µM (inactive)	14.6 µM (inactive)
FC1(F)ON2CCc3ccccc3C2[C@H]1c1ccccc1 (stereo not given in full)	> 10 µM (inactive)	> 10 µM (inactive)	> 10 µM (inactive)	> 10 µM	21 µM (inactive)	> 10 µM (inactive)	> 10 µM (inactive)	> 10 µM (inactive)	82 µM (inactive)	> 10 µM (inactive)	> 10 µM (inactive)	> 10 µM (inactive)	> 10 µM (inactive)	> 10 µM (inactive)	> 10 µM (inactive)	92.9 µM (inactive)	> 10 µM (inactive)	76.4 µM (inactive)	16.7 µM (inactive)	74 µM (inactive)
CC(C)(C)OC(=O)NC(Cc1ccc(OCc2ccccc2)cn1)C(=O)N1CCCCC1 (stereo not given)	41.4 µM (inactive)	19.4 µM (inactive)	30.9 µM (inactive)	37.6 µM	35.6 µM (inactive)	28.6 µM (inactive)	31.1 µM (inactive)	33.7 µM (inactive)	37.8 µM (inactive)	34.5 µM (inactive)	31.7 µM (inactive)	65.6 µM (inactive)	33 µM (inactive)	25.5 µM (inactive)	37.1 µM (inactive)	20.9 µM (inactive)	37.8 µM (inactive)	19.5 µM (inactive)	20.5 µM (inactive)	42.4 µM (inactive)
FC(F)(F)C1(c2ccccc2)SCc2nc3ccccc3n21 (stereo not given)	> 100 µM (inactive)	40.6 µM (inactive)	> 100 µM (inactive)	78.7 µM	> 100 µM (inactive)	35.2 µM (inactive)	71.9 µM (inactive)	80.9 µM (inactive)	> 100 µM (inactive)	> 100 µM (inactive)	43.7 µM (inactive)	> 100 µM (inactive)	> 100 µM (inactive)	> 100 µM (inactive)	> 100 µM (inactive)	> 100 µM (inactive)	> 100 µM (inactive)	> 100 µM (inactive)	88.1 µM (inactive)	> 100 µM (inactive)
O=C(NCCCCNCCCNC(=O)c1cc(-c2ccccc2)nc2ccccc12)c1cc(-c2ccccc2)nc2ccccc12	1.9 µM (inactive)	1.79 µM (inactive)	1.7 µM (inactive)	1.82 µM	1.55 µM (inactive)	2.35 µM (inactive)	1.98 µM (inactive)	1.91 µM (inactive)	2.1 µM (inactive)	2.08 µM (inactive)	1.81 µM (inactive)	2.03 µM (inactive)	1.78 µM (inactive)	1.91 µM (inactive)	1.99 µM (inactive)	2.26 µM (inactive)	1.97 µM (inactive)	2.19 µM (inactive)	1.84 µM (inactive)	1.91 µM (inactive)
C1CCCCC2(CCCCCCCCC3(CCC1)OCCO3)OCCO2	> 100 µM (inactive)	> 100 µM (inactive)	> 100 µM (inactive)	> 100 µM	> 100 µM (inactive)	> 100 µM (inactive)	> 100 µM (inactive)	> 100 µM (inactive)	> 100 µM (inactive)	> 100 µM (inactive)	> 100 µM (inactive)	> 100 µM (inactive)	> 100 µM (inactive)	> 100 µM (inactive)	> 100 µM (inactive)	> 100 µM (inactive)	> 100 µM (inactive)	> 100 µM (inactive)	> 100 µM (inactive)	> 100 µM (inactive)
